From patent publication US20200404919A1, “USE OF HETEROARYL-TRIAZOLE AND HETEROARYL-TETRAZOLE COMPOUNDS AS PESTICIDES IN PLANT PROTECTION” (Bayer Aktiengesellschaft, priority 2018, published 2020)

Key:
Format in all cases: in vivo
Phaedon cochleariae = Phaedon cochleariae - spray test; conditions: in Brassica rapa, foliar, 168 h, read-out: mortality in %
Method: Phaedon cochleariae—Spray Test
(§1) To produce a suitable preparation of active compound, 1 part by weight of active compound is mixed with the stated amount of solvents and is diluted with water, containing an emulsifier concentration of 1000 ppm, to the desired concentration. Further test concentrations are prepared by dilution with emulsifier containing water.
Chinese cabbage (Brassica pekinensis) leaf disks are sprayed with a preparation of the active ingredient of the desired concentration. Once dry, the leaf disks are infested with mustard beetle larvae (Phaedon cochleariae).
After 7 days mortality in % is determined. 100% means all beetle larvae have been killed and 0% means none of the beetle larvae have been killed.

Spodoptera frugiperda = Spodoptera frugiperda - spray test; conditions: in Zea mays, 168 h, read-out: mortality in %
Method: Spodoptera frugiperda—Spray Test
as §1
Maize (Zea mays) leaf sections are sprayed with a preparation of the active ingredient of the desired concentration. Once dry, the leaf sections are infested with fall armyworm larvae (Spodoptera frugiperda).
After 7 days mortality in % is determined. 100% means all caterpillars have been killed and 0% means none of the caterpillars have been killed.

Myzus persicae = Myzus persicae - oral test; conditions: 120 h, read-out: mortality in %
Method: To produce a suitable preparation of active compound, 1 part by weight of active compound is mixed with the stated amount of solvent, and the concentrate is diluted with water to the desired concentration. 50 μl compound solution is filled in microtiter plates and 150 μl IPL41 insect medium (33%+15% sugar) is added to obtain a total volume of 200 μl per well. Afterwards the plates are sealed with parafilm through which a mixed population of the green peach aphid (Myzus persicae) can suck on the compound preparation.
(§2) After 5 days mortality in % is determined. 100% means all aphids have been killed and 0% means none of the aphids have been killed.

Aphis gossypii = Aphis gossypii - oral test; conditions: 120 h, read-out: mortality in %
Method: Solvent: 100 parts by weight acetone
(§3) To produce a suitable preparation of active compound, 1 part by weight of active compound is mixed with the stated amount of solvent, and the concentrate is diluted with water to the desired concentration.
50 μl compound solution is filled in microtiter plates and 150 μl IPL41 insect medium (33%+15% sugar) is added to obtain a total volume of 200 μl per well. Afterwards the plates are sealed with parafilm through which a mixed population of the cotton aphid (Aphis gossypii) can suck on the compound preparation.
as §2

Diabrotica balteata = Diabrotica balteata - spray test; conditions: 168 h, 160 μg/well, germinated wheat seeds, larvae, after 7 days, read-out: efficacy in %
Method: Diabrotica balteata—Spray Test
as §1, with “solvent,” for “solvents”, “and the concentrate” for “and”
Soaked wheat seeds (Triticum aestivum) are placed in a multiple well plate filled with agar and some water and are incubated for 1 day to germinate (5 seeds per well). The germinated wheat seeds are sprayed with a test solution containing the desired concentration of the active ingredient. Afterwards each unit is infected with 10-20 larvae of the banded cucumber beetle (Diabrotica balteata).
After 7 days efficacy in % is determined. 100% means all the seedlings have grown up like in the untreated, uninfected control; 0% means none of the seedlings have grown.

Meloidogyne incognita = Meloidogyne incognita - test; conditions: 336 h, salad seedlings in sand, after 14 days, read-out: nematicidal activity (percentage of gall formation)
Method: Meloidogyne incognita—Test
Solvent: 125.0 parts by weight of acetone
as §3
Vessels are filled with sand, a solution of the active ingredient, a suspension containing eggs and larvae of the southern root-knot nematode (Meloidogyne incognita) and salad seeds. The salad seeds germinate and the seedlings grow. Galls develop in the roots.
After 14 days the nematicidal activity is determined on the basis of the percentage of gall formation. 100% means no galls were found and 0% means the number of galls found on the roots of the treated plants was equal to that in untreated control plants.

Nezara viridula = Nezara viridula - spray test 1; conditions: in Hordeum vulgare, 96 h, read-out: mortality in %
Method: Nezara viridula—Spray Test 1
as §1, with “solvent,” for “solvents”, “and the concentrate” for “and”
Barley plants (Hordeum vulgare) infested with larvae of the southern green stink bug (Nezara viridula) are sprayed with a test solution containing the desired concentration of the active ingredient.
After 4 days mortality in % is determined. 100% means all the stink bugs have been killed; 0% means none of the stink bugs have been killed.

Nilaparvata lugens = Nilaparvata lugens - spray test 1; conditions: in Oryza sativa, 96 h, read-out: mortality in %, 500 g/ha, rice plants, after 4 days
Method: Nilaparvata lugens—Spray Test 1
as §1
Rice plants (Oryza sativa) are sprayed with a preparation of the active ingredient of the desired concentration and the plants are infested with the brown planthopper (Nilaparvata lugens).
After 4 days mortality in % is determined. 100% means all planthoppers have been killed and 0% means none of the planthoppers have been killed.

Culex quinquefasciatus = assay: Culex test (CULXFAS surface treatment & contact assay); conditions: 30 minutes exposure, 24 hours after contact, read-out: efficacy (mortality in percent); for mortality at 4 mg/m2: surface concentration 4 mg/m^2, glazed tile; for mortality at 20 mg/m2: surface concentration 20 mg/m^2, glazed tile
Method: Culex Test (CULXFAS Surface Treatment & Contact Assay)
Solvent: Acetone+2000 ppm rapeseed oil methyl ester (RME)
(§4) In order to produce a sufficient, active ingredient containing solution it is necessary to solve the test-compound in an acetone/RME solvent mixture. This solution is pipetted onto a glazed tile and after evaporation of the acetone, adult mosquitoes of the species Culex quinquefasciatus (Brown house mosquito) are placed onto the dried surface. The exposure time is 30 minutes.
(§5) Mortality in percent (%) is determined 24 hours after contact to the treated surface. 100% mortality means that all test-insects are dead, whereas 0% means that not a single insect died.

[1] = tested on: Aedes aegypti strain MONHEIM; assay: Aedes test (AEDSAE surface treatment & contact assay); conditions: 30 minutes exposure, 24 hours after contact, read-out: efficacy (mortality in percent); for mortality at 4 mg/m2: surface concentration 4 mg/m^2, glazed tile; for mortality at 20 mg/m2: surface concentration 20 mg/m^2, glazed tile
Method: Aedes Test (AEDSAE Surface Treatment & Contact Assay)
Solvent: Aceton+2000 ppm rapeseed oil methyl ester (RME)
as §4, with “Aedes aegypti strain MONHEIM” for “Culex quinquefasciatus (Brown house mosquito)”
as §5

[2] = tested on: Musca domestica strain WHO-N; assay: Musca domestica test (MUSCDO surface treatment & contact assay); conditions: 30 minutes exposure, 24 hours after contact, read-out: efficacy (mortality in percent); for mortality at 4 mg/m2: surface concentration 4 mg/m^2, glazed tile; for mortality at 20 mg/m2: surface concentration 20 mg/m^2, glazed tile
Method: Musca domestica Test (MUSCDO Surface Treatment & Contact Assay)
(§6) Solvent: Aceton+2000 ppm Rapeseed oil methyl ester (RME)
as §4, with “flies” for “mosquitoes”, “Musca domestica strain WHO-N” for “Culex quinquefasciatus (Brown house mosquito)”
as §5

[3] = tested on: Blattella germanica strain PAULINIA; assay: Blattella germanica test (BLTTGE surface treatment & contact assay); conditions: 30 minutes exposure, 24 hours after contact, read-out: efficacy (mortality in percent); for mortality at 4 mg/m2: surface concentration 4 mg/m^2, glazed tile; for mortality at 20 mg/m2: surface concentration 20 mg/m^2, glazed tile
Method: Blattella germanica Test (BLTTGE Surface Treatment & Contact Assay)
as §6
as §4, with “animals” for “mosquitoes”, “Blattella germanica strain PAULINIA” for “Culex quinquefasciatus (Brown house mosquito)”
as §5

CC(c1ncnn1-c1ncccn1)N(CC(F)F)C(=O)c1cc(Cl)cc(C(F)(F)F)c1 (centres unmarked) [Compound I-89, 3-chloro-N-(2,2-difluoroethyl)-N-[1-(2-pyrimidin-2-yl-1,2,4-triazol-3-yl)ethyl]-5-(trifluoromethyl)benzamide] gave a mortality at 500 g/ha (Phaedon cochleariae) of 100%, a mortality at 500 g/ha (Spodoptera frugiperda) of 100% and a mortality at 20 ppm (Myzus persicae) of 100%. For the same compound, the mortality at 100 ppm (Aphis gossypii) was 100%, the pest or weed control at 160 µg/disc, 160 µg/well (Diabrotica balteata) was 100% and the pest or weed control at 20 ppm (Meloidogyne incognita) was 100%.
Work on CC(c1ncnn1-c1ncccn1)N(CC1CC1)C(=O)c1cccc(Cl)c1 (centres unmarked) [Compound I-108] yielded a mortality at 500 g/ha (Phaedon cochleariae) of 100%, a pest or weed control at 160 µg/disc, 160 µg/well (Diabrotica balteata) of 100% and a pest or weed control at 20 ppm (Meloidogyne incognita) of 90%. It also gave a mortality at 500 g/ha (Nezara viridula) of 100% and a mortality at 500 g/ha (Nilaparvata lugens) of 100%.
Work on CC(c1ncnn1-c1ncccn1)N(CC1CC1)C(=O)c1ccc(Cl)cc1 (centres unmarked) [Compound I-109] yielded a pest or weed control at 160 µg/disc, 160 µg/well (Diabrotica balteata) of 100% and a pest or weed control at 20 ppm (Meloidogyne incognita) of 100%.
CC(c1ncnn1-c1ncccn1)N(CC1CC1)C(=O)c1cc(Cl)c(Cl)c(Cl)c1 (centres unmarked) [Compound I-111] gave a pest or weed control at 20 ppm (Meloidogyne incognita) of 90%.
For CC(NC(=O)c1cc(Cl)cc(C#N)c1)c1ncnn1-c1ncccn1 (centres unmarked) [Compound I-114, 3-chloro-5-cyano-N-[1-(2-pyrimidin-2-yl-1,2,4-triazol-3-yl)ethyl]benzamide], the mortality at 500 g/ha (Phaedon cochleariae) was 100%, the mortality at 500 g/ha (Spodoptera frugiperda) was 100% and the mortality at 20 ppm (Myzus persicae) was 100%. It also gave a mortality at 100 ppm (Aphis gossypii) of 100%, a pest or weed control at 160 µg/disc, 160 µg/well (Diabrotica balteata) of 100% and a mortality at 500 g/ha (Nezara viridula) of 100%. It also gave a mortality at 500 g/ha (Nilaparvata lugens) of 100%, a mortality at 4 mg/m2 (Culex quinquefasciatus) of 80 to 100% and a mortality at 20 mg/m2 (Culex quinquefasciatus) of 80 to 100%. The mortality at 4 mg/m2 [1] was 80 to 100%, the mortality at 20 mg/m2 [1] was 80 to 100% and the mortality at 4 mg/m2 [2] was 80 to 100%. For the same compound, the mortality at 20 mg/m2 [2] was 80 to 100%, the mortality at 4 mg/m2 [3] was 80 to 100% and the mortality at 20 mg/m2 [3] was 80 to 100%.
For CC(NC(=O)c1cc(Cl)cc(OC(F)(F)F)c1)c1ncnn1-c1ncccn1 (centres unmarked) [Compound I-119, 3-chloro-N-[1-(2-pyrimidin-2-yl-1,2,4-triazol-3-yl)ethyl]-5-(trifluoromethoxy)benzamide], the mortality at 500 g/ha (Phaedon cochleariae) was 100%, the mortality at 500 g/ha (Spodoptera frugiperda) was 100% and the mortality at 20 ppm (Myzus persicae) was 100%. The mortality at 100 ppm (Aphis gossypii) was 100%, the pest or weed control at 160 µg/disc, 160 µg/well (Diabrotica balteata) was 100% and the mortality at 500 g/ha (Nezara viridula) was 100%. For the same compound, the mortality at 500 g/ha (Nilaparvata lugens) was 100%, the mortality at 4 mg/m2 (Culex quinquefasciatus) was 80 to 100% and the mortality at 20 mg/m2 (Culex quinquefasciatus) was 80 to 100%. The mortality at 4 mg/m2 [1] was 80 to 100%, the mortality at 20 mg/m2 [1] was 80 to 100% and the mortality at 4 mg/m2 [2] was 80 to 100%. For the same compound, the mortality at 20 mg/m2 [2] was 80 to 100%, the mortality at 4 mg/m2 [3] was 80 to 100% and the mortality at 20 mg/m2 [3] was 80 to 100%.
